Results reported in the NIST ThermoML archive (doi:10.1021/je100068y).
Where “and” joins values, the source holds several entries; their conditions need not be identical. Equal entries are not always repeated.

Legend:
[1] = cn = amount concentration of the nth substance listed, in mol/dm3; details: 101.33 kPa, Liquid, Alternating current cell with electrodes
[2] = mn = molality of the nth substance listed, in mol/kg; details: 101.33 kPa, Liquid, m1 = 0.05

CCCCCCCCCCCCOS(=O)(=O)[O-].[Na+] [sodium dodecyl sulfate] + O
electrical conductivity [S/m], [1]
Details | 288.15 K | 293.15 K | 298.15 K | 303.15 K | 308.15 K
c1 = 0.003022 | 0.0165 | 0.0184 | 0.0207 | 0.0234 | 0.0258
c1 = 0.004552 | 0.0247 | 0.0279 | 0.0313 | 0.0349 | 0.0386
c1 = 0.005661 | 0.0304 | 0.0344 | 0.0388 | 0.0431 | 0.0477
c1 = 0.006744 | 0.0361 | 0.0408 | 0.0458 | 0.051 | 0.0564
c1 = 0.007679 | 0.0408 | 0.0461 | 0.0517 | 0.0577 | 0.0638
c1 = 0.008765 | 0.0447 | 0.0502 | 0.0565 | 0.0632 | 0.0704
c1 = 0.009933 | 0.0474 | 0.0532 | 0.06 | 0.0671 | 0.0751
c1 = 0.0111 | 0.0497 | 0.0559 | 0.0632 | 0.0708 | 0.0793
c1 = 0.01221 | 0.0518 | 0.0584 | 0.0661 | 0.074 | 0.083
c1 = 0.01335 | 0.0538 | 0.0609 | 0.0688 | 0.0774 | 0.0869
c1 = 0.01444 | 0.0558 | 0.0632 | 0.0715 | 0.0805 | 0.0904
c1 = 0.0156 | 0.058 | 0.0657 | 0.0745 | 0.084 | 0.0944
c1 = 0.01674 | 0.0601 | 0.0683 | 0.0775 | 0.0873 | 0.098

[2]
Details | mass density
298.15 K | 999.198 kg/m3 and 999.155 kg/m3
303.15 K | 997.657 kg/m3 and 997.661 kg/m3
308.15 K | 995.989 kg/m3 and 995.962 kg/m3
313.15 K | 994.178 kg/m3 and 994.186 kg/m3
